The text below walks through data of article PMC6152678, “In Vitro Comparative Study of the Inhibitory Effects of Mangiferin and Its Aglycone Norathyriol towards UDP-Glucuronosyl Transferase (UGT) Isoforms” (Molecules : A Journal of Synthetic Chemistry and Natural …, 2017).

Data set [1] deals with T1, UGT1A9 (Homo sapiens, UniProt O60656).
T1 construct: purchased BD Gentest Corp. (Woburn, MA, USA); host or cells: baculovirus-infected insect cells
T1 sequence (O60656 26-530): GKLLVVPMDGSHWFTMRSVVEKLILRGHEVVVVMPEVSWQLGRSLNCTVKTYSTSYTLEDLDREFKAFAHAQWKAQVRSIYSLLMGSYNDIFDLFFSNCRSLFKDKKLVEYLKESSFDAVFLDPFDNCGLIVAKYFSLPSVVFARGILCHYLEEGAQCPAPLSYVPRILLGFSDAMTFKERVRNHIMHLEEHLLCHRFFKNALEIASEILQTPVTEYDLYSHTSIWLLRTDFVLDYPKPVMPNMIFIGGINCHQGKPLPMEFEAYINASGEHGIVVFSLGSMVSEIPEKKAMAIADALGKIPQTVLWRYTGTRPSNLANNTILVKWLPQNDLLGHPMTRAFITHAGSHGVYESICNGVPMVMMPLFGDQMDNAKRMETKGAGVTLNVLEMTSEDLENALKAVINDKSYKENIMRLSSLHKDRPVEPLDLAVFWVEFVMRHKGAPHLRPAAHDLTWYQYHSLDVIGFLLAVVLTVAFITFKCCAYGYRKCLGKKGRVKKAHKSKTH
Put plainly: Inhibition of recombinant UGT-catalyzed 4-MU glucuronidation. As to conditions: for inhibition at 30 min, 100 µM: human, pH 7.4, probe 4-methylumbelliferone (4-MU), 30 μM, 100 μM compound, 4-MU probe substrate, negative = activation. Format: biochemical. Here is the method: (§1) Sigma-Aldrich (St Louis, MO, USA) provided the following constituents in the incubation mixture: 4-methylumbelliferone (4-MU), 4-methylumbelliferone-β-D-glucuronide (4-MUG), Tris-HCl, 7-hydroxycoumarin, and uridine-diphosphoglucuronic acid (UDPGA) (trisodium salt). All other compounds were of high-performance liquid chromatography (HPLC) grade or of the highest grade commercially available. For enzyme sources, recombinant UGT isoforms expressed in baculovirus-infected insect cells were purchased from BD Gentest Corp. (Woburn, MA, USA), including UGT1A1, 1A3, 1A6, 1A7, 1A8, 1A9, 1A10, 2B4, 2B7, 2B15, and 2B17.
(§2) 4-MU, a nonspecific probe substrate for all the UGT isoforms, was employed to investigate the inhibition of MEF and NIR towards the activity of UGT isoforms. The incubation and analytical methods have been previously described. […] MEF and NIR were dissolved in the DMSO to make a stock solution of 20 mM, and various concentrations of working solutions were prepared through dilution with DMSO. 4-MU was used as a non-selective substrate of UGTs. There was a 5-min pre-incubation step at 37 °C before the reaction was initiated by the addition of UDPGA. 4-MU and inhibitors were previously dissolved in DMSO, and the total concentration of DMSO was 1%. The reactions were continued at 37 °C for 120 min for UGT1A1, UGT1A3, UGT1A10, UGT2B4, UGT2B7, UGT2B15 and UGT2B17, 30 min for UGT1A6, UGT1A7, UGT1A8, and UGT1A9, respectively. Reactions were terminated by the addition of 100 μL acetonitrile with 7-hydroxycoumarin (100 μM) as internal standard. The incubation mixtures were then centrifuged at 12,000 r/min for 10 min. 2 μL supernatant was injected into the UPLC system for analysis. An ACQUITY UPLC System (Waters, Milford, MA, USA) equipped with UV detector was used to analyze the samples, and the separation of all the compounds were carried out using a ACQUITY UPLC® BEH C18 (2.1 × 100 mm, 1.7 μm Waters) at a flow rate of 0.2 mL/min and UV detector at 316 nm. The mobile phase was consisted of ultrapure water containing 0.5% formic acid (A) and acetonitrile (B). The following gradient condition was used: 0–3.5 min, 10–65% B; 3.5–4.0 min, 65% B; 4.0–9.0 min, 10% B. To calculate the standard curve 0.1–100 μM of 4-MUG was used through drawing the peak area ration of 4-MUG/internal standard towards the concentration range of 4-MUG. The curve was linear over this concentration range, with an r^2 value > 0.99.
(§3) The inhibition type and Kinetics were determined for the inhibition of NTR towards UGT1A3, UGT1A7 and UGT1A9. The glucuronidation velocity of 4-MU was determined at multiple concentrations of 4-MU and NTR. Dixon and Lineweaver–Burk plots were employed to determine the inhibition type, and the second plot of the slopes from the Lineweaver–Burk plot versus the compound concentrations was utilized to calculate the Ki value. The determination of IC50 was calculated using Probit analysis in SPSS11.5 (SPSS, Chicago, IL, USA). The Student’s t-test was adopted at a significance level of p < 0.05 to determine statistically significant differences among experimental groups.

In data set [2] the target is T2, UGT1A6 (Homo sapiens, UniProt P19224).
T2 construct: purchased BD Gentest Corp. (Woburn, MA, USA); host or cells: baculovirus-infected insect cells
T2 sequence (P19224 27-532): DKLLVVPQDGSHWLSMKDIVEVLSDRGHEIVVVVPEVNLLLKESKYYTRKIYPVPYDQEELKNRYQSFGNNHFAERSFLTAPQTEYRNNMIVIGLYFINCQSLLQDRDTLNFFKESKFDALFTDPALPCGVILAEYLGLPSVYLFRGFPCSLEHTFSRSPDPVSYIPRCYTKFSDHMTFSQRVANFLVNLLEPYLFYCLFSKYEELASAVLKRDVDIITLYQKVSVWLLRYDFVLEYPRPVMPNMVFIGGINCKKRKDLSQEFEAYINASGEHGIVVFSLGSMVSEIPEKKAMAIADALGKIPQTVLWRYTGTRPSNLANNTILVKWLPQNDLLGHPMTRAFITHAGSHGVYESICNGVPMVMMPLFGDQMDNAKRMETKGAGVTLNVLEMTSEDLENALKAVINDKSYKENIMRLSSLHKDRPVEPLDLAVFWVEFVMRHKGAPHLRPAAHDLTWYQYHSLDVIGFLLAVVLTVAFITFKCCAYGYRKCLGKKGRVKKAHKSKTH
The description is as above. Format: biochemical. As to conditions: pH 7.4, probe 4-methylumbelliferone (4-MU), 110 μM, 100 μM compound, 4-MU probe substrate, negative = activation. The method, then:
as §1, §2, §3

For `O=c1c2cc(O)c(O)cc2oc2cc(O)cc(O)c12` [NTR, 1,3,6,7-tetrahydroxyxanthone], the IC50 (in general, the concentration at which inhibition is half-maximal) in data set [1] (4-MU glucuronidation, Probit analysis, read-out: IC50 towards UGT1A9) was found to be 12.3 µM. Moreover, the “inhibition type towards UGT1A9” value in data set [1] (Dixon plot and Lineweaver-Burk plot) is recorded as “competitively inhibited”. In addition, the inhibition (in general, the drop in the measured response relative to a control, in per cent) at 30 min, 100 µM in data set [1] is 94.2%; in data set [2] it was 46.2%. Besides, the Ki (commonly the equilibrium dissociation constant of an inhibitor or competing ligand from its target) in data set [1] (second plot of Lineweaver-Burk slopes, read-out: inhibition constant (Ki) towards UGT1A9) amounted to 2.8 µM.
For `O=c1c2cc(O)c(O)cc2oc2cc(O)c([C@@H]3O[C@H](CO)[C@@H](O)[C@H](O)[C@H]3O)c(O)c12` [MGF, 1,3,6,7-tetrahydroxyxanthone-C-2-β-D-glucoside], the inhibition at 30 min, 100 µM came out at 8.2% in data set [1] and 11.2% in data set [2].
